Numbers after ± are expanded uncertainties.
Experiment: mn = molality of the nth substance listed, in mol/kg
Conditions: 100 kPa, Liquid; for speed of sound: Frequency=3 MHz, Sing-around technique in a fixed-path interferometer; for mass density: Vibrating tube method

O=C([O-])CC(O)(CC(=O)[O-])C(=O)[O-].[K+].[K+].[K+] [potassium citrate] + O
Conditions | mass density, 288.15 K [kg/m3] | mass density, 298.15 K [kg/m3] | mass density, 308.15 K [kg/m3] | mass density, 318.15 K [kg/m3] | speed of sound, 288.15 K [m/s] | speed of sound, 298.15 K [m/s] | speed of sound, 308.15 K [m/s] | speed of sound, 318.15 K [m/s]
m1 = 0.2 | 1036.81 ± 4 | 1034.22 ± 4 | 1030.82 ± 4 | 1026.73 ± 4 | 1505.5 ± 1.2 | 1533 ± 1.2 | 1553.9 ± 1.2 | 1568.9 ± 1.2
m1 = 0.4 | 1073.44 ± 4 | 1070.41 ± 4 | 1066.68 ± 4 | 1062.34 ± 4 | 1544.3 ± 1.3 | 1569.1 ± 1.3 | 1587.9 ± 1.3 | 1601.3 ± 1.3
m1 = 0.6 | 1128.01 ± 4 | 1124.42 ± 4 | 1120.28 ± 4 | 1115.69 ± 4 | 1604 ± 1.3 | 1625.9 ± 1.3 | 1641.7 ± 1.3 | 1652.5 ± 1.3

From the NIST ThermoML archive (doi:10.1021/acs.jced.5b00933)
